Tested on: luciferase transgenic rat-derived oral mucosal cell sheet
Assay: Residual ATP level in luciferase transgenic rat-derived oral mucosal cell sheet after preservation and post-preservation culture
Assay type: cell-based
Settings: tBHQ in HBSS (1 μM, 10 μM, 100 μM)
Description: An oral tissue of a luciferase transgenic rat (Hakamata Y, Murakami T, Kobayashi E., Transplantation 2006; 81(8): 1179-1184) was provided by Dr. Eiji Kobayashi in the Division of Development of Advanced Treatment, Jichi Medical University. The oral tissue was washed twice with DMEM (Gibco) supplemented with 1% antibiotics and antimycotics (AbAm, Gibco). The washed tissue was immersed in a solution of dispase I (1,000 PU/ml) in DMEM supplemented with 1% AbAm at 4° C. for 4 hours. After the dispase treatment, the tissue was transferred into a 0.02% EDTA solution (nacalai tesque), immersed therein at room temperature for 2 minutes, and washed twice with PBS. […]
The ATP level in a cell sheet correlates with the viability of the cell sheet. The ATP levels in a cell sheet before preservation, after preservation and after post-preservation culture were measured as an indicator of the viability of the cell sheet. […] After this, the 96-well plate was set in a luminescence microplate reader Centro LB960 (Berthold Technologies GmbH & Co. KG), and according to the device settings of the microplate reader, addition of luciferin (final concentration; 0.19 mg/ml) and measurement of the ATP level were conducted. The measurement temperature was 4° C., the single reading time was 2 seconds, and the total reading time was 12 minutes. […]

In the case of `CC(C)(C)c1cc(O)ccc1O` [tBHQ, tert-butylhydroquinone], the “residual ATP level after 7 days of preservation compared with HBSS without additive” value is reported as “higher”.
